According to patent publication US5395850A, “6,7-epoxy paclitaxels” (Bristol-Myers Squibb Company, priority 1994, dated 1995):
pIC50: −log10 of the molar value. Read-outs that look alike come from different tables or passages of the source.

How the values were obtained:
[1] = tested on: human colon carcinoma cells HCT-116; test: XTT in vitro cytotoxicity assay, HCT-116 human colon carcinoma cells; format: cell-based; details: for IC50: HCT-116, 72 h, read-out: IC50 HCT116 (nM); for pIC50: HCT-116, XTT, 72 hours at 37° C., inhibition of cell proliferation to 50% of untreated control, read-out: IC50 HCT116
Experimental: (§1) The HCT-116/VM46 cells are cells that have been previously selected for teniposide resistance and express the multi-drug resistance phenotype, including resistance to paclitaxel. Cytotoxicity was assessed in HCT-116 human colon carcinoma cells by XTT (2,3-bis(2-methoxy-4-nitro-5-sulfphenyl)-5-[(phenylamino)carbonyl]2H-tetrazolium hydroxide) assay as reported in D. A. Scudiero, et al., "Evaluation of soluble tetrazolium/formazan assay for cell growth and drug sensitivity in culture using human and other tumor cell lines," Cancer Res. 48:4827-4833, 1988. Cells were plated at 4000 cells/well in 96 well microtiter plates and 24 hours later drugs were added and serial diluted. The cells were incubated at 37° C. for 72 hours at which time the tetrazolium dye, XTT, was added. A dehydrogenase enzyme in live cells reduces the XTT to a form that absorbs light at 450 nm which can be quantitated spectrophotometrically. The greater the absorbance, the greater the number of live cells. The results are expressed as an IC50, which is the drug concentration required to inhibit cell proliferation (i.e., absorbance at 450 nm) to 50% of that of untreated control cells.

[2] = tested on: human colon carcinoma cells HCT-116/VM46; test: XTT in vitro cytotoxicity assay, HCT-116/VM46 multi-drug resistant human colon carcinoma cells; format: cell-based; details: for IC50: HCT-116/VM46, 72 h, read-out: IC50 HCT116/VM46 (nM); for pIC50: HCT-116/VM46, XTT, 72 hours at 37° C., teniposide-selected cells, multi-drug resistance phenotype incl. resistance to paclitaxel, read-out: IC50 HCT116/VM46
Experimental: as §1

Work on `CC(=O)O[C@H]1C(=O)[C@]2(C)[C@@H]3O[C@@H]3[C@H]3OC[C@@]3(OC(C)=O)[C@H]2[C@H](OC(=O)c2ccccc2)[C@]2(O)C[C@H](OC(=O)[C@H](O)[C@@H](NC(=O)c3ccccc3)c3ccccc3)C(C)=C1C2(C)C` [Ia, 6,7-α-Epoxypaclitaxel] yielded an IC50 [1] of 1.2 nM and an IC50 [2] of 30.5 nM.
`CC(=O)O[C@H]1C(=O)[C@]2(C)[C@@H]3O[C@@H]3[C@H]3OC[C@@]3(OC(C)=O)[C@H]2[C@H](OC(=O)c2ccccc2)[C@]2(O)C[C@H](OC(=O)[C@H](O)[C@@H](NC(=O)OC(C)(C)C)c3ccco3)C(C)=C1C2(C)C` [Ib, 3'-N-Debenzoyl-N-t-butoxycarbonyl-3'-desphenyl-3'-(2-furyl)-6,7-α-epoxypaclitaxel] showed a pIC50 [1] of 8.52 to 8.89 and a pIC50 [2] of 7.86 to 8.55.
Work on `CC(=O)O[C@H]1C(=O)[C@]2(C)[C@@H]3O[C@@H]3[C@H]3OC[C@@]3(OC(C)=O)[C@H]2[C@H](OC(=O)c2ccccc2)[C@]2(O)C[C@H](OC(=O)[C@H](O)[C@@H](NC(=O)c3ccccc3)c3ccco3)C(C)=C1C2(C)C` [Ic, 3'-Desphenyl-3'-(2-furyl)-6,7-α-epoxypaclitaxel] yielded an IC50 [1] of 0.6 nM and an IC50 [2] of 12.3 nM.
Compound `CC(=O)O[C@H]1C(=O)[C@]2(C)[C@@H]3O[C@@H]3[C@H]3OC[C@@]3(OC(C)=O)[C@H]2[C@H](OC(=O)c2ccccc2)[C@]2(O)C[C@H](OC(=O)[C@H](O)[C@H](C=C(C)C)NC(=O)OC(C)(C)C)C(C)=C1C2(C)C` [Id, 3'-N-Debenzoyl-N-t-butoxycarbonyl-3'-desphenyl-3'-isobutenyl-6,7-α-epoxypaclitaxel] has an IC50 [1] of 1.3 nM and an IC50 [2] of 3.3 nM.
`CC(=O)O[C@H]1C(=O)[C@@]2(C)[C@H]([C@H](OC(=O)c3ccccc3)[C@]3(O)C[C@H](OC(=O)[C@H](O)[C@@H](NC(=O)c4ccccc4)c4ccccc4)C(C)=C1C3(C)C)[C@]1(OC(C)=O)CO[C@@H]1C[C@@H]2O` [paclitaxel] showed a pIC50 [1] of 8.46 to 8.89 and a pIC50 [2] of 6.39 to 6.61.
